Publication PMC9274761, “Effects of Structurally Different HDAC Inhibitors against Trypanosoma cruzi, Leishmania, and Schistosoma mansoni” (ACS Infectious Diseases, 2022)

Key:
HDAC1 = HDAC1 (Homo sapiens, UniProt Q13547); assay: HDAC1 protease-coupled fluorescence (AMC) inhibition assay; type: biochemical; conditions: hr enzyme, 10-dose, 3-fold dilution from 50 μM (3: from 300 μM); read-out: IC50 against HDAC1
Description: (§1) The new hydroxamates 2 and 6 were screened and profiled via a protease-coupled assay in which the quantification of HDAC enzyme activity is based on the formation of a free fluorescent group, the 7-amino-4-methyl coumarin (AMC).[42] […] After deacetylation by HDACs, the de(trifluoro)acetylated AMC–peptides were sensitive toward lysine peptidase and free fluorogenic AMC was generated and quantified.[42]
(§2) To gain insights into its inhibition profile for human HDACs, we tested 3 against hrHDACs 1–6 and 8 following the above procedure (Table 1).
(§3) Individual IC50 values for each HDAC isozyme were measured with the homogeneous fluorescence release HDAC assay.[42]

HDAC2 = HDAC2 (Homo sapiens, UniProt Q92769); assay: HDAC2 protease-coupled fluorescence (AMC) inhibition assay; type: biochemical; conditions: hr enzyme, 10-dose, 3-fold dilution from 50 μM (3: from 300 μM); read-out: IC50 against HDAC2
Description: as §1, §2, §3

HDAC3 = HDAC3 (Homo sapiens, UniProt O15379); assay: HDAC3 protease-coupled fluorescence (AMC) inhibition assay; type: biochemical; conditions: hr enzyme, 10-dose, 3-fold dilution from 50 μM (3: from 300 μM); read-out: IC50 against HDAC3
Description: as §1, §2, §3

HDAC4 = HDAC4 (Homo sapiens, UniProt P56524); assay: HDAC4 protease-coupled fluorescence (AMC) inhibition assay; type: biochemical; conditions: hr enzyme, class IIa substrate Boc-Lys(trifluoroacetyl)-AMC; read-out: IC50 against HDAC4
Description: as §1, §2, §3

HDAC5 = HDAC5 (Homo sapiens, UniProt Q9UQL6); assay: HDAC5 protease-coupled fluorescence (AMC) inhibition assay; type: biochemical; conditions: hr enzyme, class IIa substrate Boc-Lys(trifluoroacetyl)-AMC; read-out: IC50 against HDAC5
Description: as §1, §2, §3

HDAC6 = target: T1, HDAC6 (Homo sapiens, UniProt Q9UBN7); assay: HDAC6 protease-coupled fluorescence (AMC) inhibition assay; type: biochemical; conditions: hr enzyme, 10-dose, 3-fold dilution from 50 μM (3: from 300 μM); read-out: IC50 against HDAC6
T1 sequence (Q9UBN7 1-1215): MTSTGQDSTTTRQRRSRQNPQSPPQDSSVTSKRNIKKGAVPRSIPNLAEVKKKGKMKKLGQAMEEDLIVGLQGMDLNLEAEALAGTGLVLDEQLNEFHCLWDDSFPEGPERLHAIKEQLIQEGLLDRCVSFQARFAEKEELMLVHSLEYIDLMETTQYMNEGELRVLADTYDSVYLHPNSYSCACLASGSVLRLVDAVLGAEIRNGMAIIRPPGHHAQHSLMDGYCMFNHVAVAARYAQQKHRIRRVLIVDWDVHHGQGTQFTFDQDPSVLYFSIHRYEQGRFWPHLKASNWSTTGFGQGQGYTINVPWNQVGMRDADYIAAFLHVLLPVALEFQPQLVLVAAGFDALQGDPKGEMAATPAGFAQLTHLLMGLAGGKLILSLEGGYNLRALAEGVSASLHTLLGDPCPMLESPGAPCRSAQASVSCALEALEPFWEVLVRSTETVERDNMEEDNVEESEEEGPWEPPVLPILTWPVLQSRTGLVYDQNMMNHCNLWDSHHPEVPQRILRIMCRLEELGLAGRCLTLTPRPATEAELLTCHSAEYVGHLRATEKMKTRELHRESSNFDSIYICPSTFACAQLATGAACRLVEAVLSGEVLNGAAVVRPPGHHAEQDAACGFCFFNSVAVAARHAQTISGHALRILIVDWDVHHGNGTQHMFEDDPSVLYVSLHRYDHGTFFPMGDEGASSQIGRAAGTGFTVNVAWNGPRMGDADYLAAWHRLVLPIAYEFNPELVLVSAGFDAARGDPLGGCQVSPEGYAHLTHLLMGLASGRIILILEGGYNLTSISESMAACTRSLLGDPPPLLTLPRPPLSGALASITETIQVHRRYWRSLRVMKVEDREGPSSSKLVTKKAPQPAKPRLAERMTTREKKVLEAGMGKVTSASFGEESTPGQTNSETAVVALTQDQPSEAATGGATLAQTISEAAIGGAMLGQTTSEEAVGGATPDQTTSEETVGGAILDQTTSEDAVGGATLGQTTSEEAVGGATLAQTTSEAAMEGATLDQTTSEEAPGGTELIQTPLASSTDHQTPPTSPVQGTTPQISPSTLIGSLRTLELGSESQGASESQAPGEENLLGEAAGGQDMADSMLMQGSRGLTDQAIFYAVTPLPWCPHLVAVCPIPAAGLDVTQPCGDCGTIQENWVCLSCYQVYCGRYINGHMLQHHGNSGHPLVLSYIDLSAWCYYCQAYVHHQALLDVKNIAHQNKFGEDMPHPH
Description: as §1, §2, §3

HDAC8 = target: T2, HDAC8 (Homo sapiens, UniProt Q9BY41); assay: HDAC8 protease-coupled fluorescence (AMC) inhibition assay; type: biochemical; conditions: hr enzyme, substrate RHK(Ac)K(Ac)AMC; read-out: IC50 against HDAC8
T2 sequence (Q9BY41 1-377): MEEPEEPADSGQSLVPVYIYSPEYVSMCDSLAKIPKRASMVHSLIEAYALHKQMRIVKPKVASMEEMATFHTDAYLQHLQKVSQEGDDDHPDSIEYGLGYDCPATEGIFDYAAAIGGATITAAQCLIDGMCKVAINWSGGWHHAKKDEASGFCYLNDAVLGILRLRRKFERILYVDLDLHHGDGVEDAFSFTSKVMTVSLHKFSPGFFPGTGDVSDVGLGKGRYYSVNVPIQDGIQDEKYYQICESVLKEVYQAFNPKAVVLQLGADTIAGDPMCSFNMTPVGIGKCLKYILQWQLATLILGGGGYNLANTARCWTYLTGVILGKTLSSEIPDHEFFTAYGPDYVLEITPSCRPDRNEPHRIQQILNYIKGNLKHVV
Description: as §1, §2, §3

[1] = tested on: T. cruzi amastigotes and trypomastigotes; assay: T. cruzi infection assay in L929 cells (beta-galactosidase Tulahuen strain); type: cell-based, Trypanosoma cruzi
[2] = tested on: L. amazonensis promastigotes; assay: Resazurin reduction assay, L. amazonensis promastigotes; type: cell-based; conditions: Leishmania amazonensis; 20 μM; read-out: percentage of inhibition, L. amazonensis promastigotes
[3] = tested on: L. donovani promastigotes; assay: Resazurin reduction assay, L. donovani promastigotes; type: cell-based; conditions: Leishmania donovani, read-out: percentage of inhibition, L. donovani promastigotes
[4] = tested on: L. donovani axenic amastigotes; assay: Resazurin reduction assay, L. donovani axenic amastigotes; type: cell-based; conditions: Leishmania donovani, read-out: percentage of inhibition, L. donovani axenic amastigotes
[5] = tested on: newly transformed schistosomula (NTS); assay: Phenotypic screening on newly transformed schistosomula (NTS); type: cell-based, Schistosoma mansoni
in vitro = conditions: mouse, noninfected L929 fibroblast cells

HDAC3, sequence (O15379 whole entry): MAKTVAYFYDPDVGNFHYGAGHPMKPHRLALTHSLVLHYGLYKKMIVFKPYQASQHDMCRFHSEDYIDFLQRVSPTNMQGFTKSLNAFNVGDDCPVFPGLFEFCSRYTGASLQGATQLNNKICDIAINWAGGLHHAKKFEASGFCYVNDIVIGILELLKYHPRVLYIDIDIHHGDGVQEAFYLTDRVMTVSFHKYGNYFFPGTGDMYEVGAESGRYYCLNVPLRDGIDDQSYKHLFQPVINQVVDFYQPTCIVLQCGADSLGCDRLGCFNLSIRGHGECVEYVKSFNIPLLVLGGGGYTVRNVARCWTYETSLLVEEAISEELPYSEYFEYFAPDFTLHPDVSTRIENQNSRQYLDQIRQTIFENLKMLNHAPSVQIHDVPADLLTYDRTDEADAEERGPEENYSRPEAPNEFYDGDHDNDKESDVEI
HDAC3, sequence (Q9Y618 395-489 partner limits assumed): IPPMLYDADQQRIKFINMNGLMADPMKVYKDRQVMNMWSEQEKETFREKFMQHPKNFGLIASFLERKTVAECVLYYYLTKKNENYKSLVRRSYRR
HDAC1, sequence (Q13547 whole entry): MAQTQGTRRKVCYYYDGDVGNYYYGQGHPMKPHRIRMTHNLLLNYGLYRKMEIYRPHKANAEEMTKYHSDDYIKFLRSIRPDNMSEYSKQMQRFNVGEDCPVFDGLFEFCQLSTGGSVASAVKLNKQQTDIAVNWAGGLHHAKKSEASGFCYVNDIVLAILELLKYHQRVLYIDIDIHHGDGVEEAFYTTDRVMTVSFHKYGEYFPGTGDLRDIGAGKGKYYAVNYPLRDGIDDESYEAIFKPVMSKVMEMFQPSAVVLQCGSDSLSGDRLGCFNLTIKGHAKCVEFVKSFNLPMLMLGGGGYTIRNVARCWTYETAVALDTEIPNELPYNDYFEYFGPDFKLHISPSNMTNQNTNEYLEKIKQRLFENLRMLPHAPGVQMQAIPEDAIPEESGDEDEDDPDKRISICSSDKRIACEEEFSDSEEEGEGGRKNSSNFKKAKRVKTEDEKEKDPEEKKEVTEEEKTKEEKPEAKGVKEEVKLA
HDAC4, sequence (P56524 whole entry): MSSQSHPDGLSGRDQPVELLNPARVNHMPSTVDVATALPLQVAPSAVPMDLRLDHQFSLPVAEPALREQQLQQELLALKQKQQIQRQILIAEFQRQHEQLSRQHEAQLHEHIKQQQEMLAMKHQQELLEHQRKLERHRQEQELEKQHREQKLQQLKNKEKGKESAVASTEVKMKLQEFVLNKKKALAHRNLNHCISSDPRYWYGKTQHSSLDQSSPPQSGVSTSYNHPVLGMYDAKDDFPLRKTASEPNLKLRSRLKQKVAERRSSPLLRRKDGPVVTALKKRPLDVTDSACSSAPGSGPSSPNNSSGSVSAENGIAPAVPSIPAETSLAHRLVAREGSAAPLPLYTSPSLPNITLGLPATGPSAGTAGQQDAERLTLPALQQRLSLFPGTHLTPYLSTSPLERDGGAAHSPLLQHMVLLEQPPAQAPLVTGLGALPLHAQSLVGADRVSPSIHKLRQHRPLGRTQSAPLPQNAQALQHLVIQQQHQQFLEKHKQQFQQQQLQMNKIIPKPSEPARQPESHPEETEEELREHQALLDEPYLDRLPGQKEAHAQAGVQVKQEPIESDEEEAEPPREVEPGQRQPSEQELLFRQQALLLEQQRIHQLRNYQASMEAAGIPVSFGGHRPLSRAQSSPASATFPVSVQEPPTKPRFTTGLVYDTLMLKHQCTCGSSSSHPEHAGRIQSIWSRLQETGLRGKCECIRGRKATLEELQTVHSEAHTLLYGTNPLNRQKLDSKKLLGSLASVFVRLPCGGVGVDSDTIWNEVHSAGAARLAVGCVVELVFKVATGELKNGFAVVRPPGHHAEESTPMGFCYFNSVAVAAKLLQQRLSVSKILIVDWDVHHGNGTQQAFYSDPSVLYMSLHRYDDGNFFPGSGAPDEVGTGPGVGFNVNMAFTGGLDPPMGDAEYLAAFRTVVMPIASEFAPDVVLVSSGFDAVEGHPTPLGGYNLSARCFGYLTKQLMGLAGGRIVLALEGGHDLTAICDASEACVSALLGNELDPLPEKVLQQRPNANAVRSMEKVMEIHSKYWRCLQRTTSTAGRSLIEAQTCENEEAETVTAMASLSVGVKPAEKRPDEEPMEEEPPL
HDAC2, sequence (Q92769 whole entry): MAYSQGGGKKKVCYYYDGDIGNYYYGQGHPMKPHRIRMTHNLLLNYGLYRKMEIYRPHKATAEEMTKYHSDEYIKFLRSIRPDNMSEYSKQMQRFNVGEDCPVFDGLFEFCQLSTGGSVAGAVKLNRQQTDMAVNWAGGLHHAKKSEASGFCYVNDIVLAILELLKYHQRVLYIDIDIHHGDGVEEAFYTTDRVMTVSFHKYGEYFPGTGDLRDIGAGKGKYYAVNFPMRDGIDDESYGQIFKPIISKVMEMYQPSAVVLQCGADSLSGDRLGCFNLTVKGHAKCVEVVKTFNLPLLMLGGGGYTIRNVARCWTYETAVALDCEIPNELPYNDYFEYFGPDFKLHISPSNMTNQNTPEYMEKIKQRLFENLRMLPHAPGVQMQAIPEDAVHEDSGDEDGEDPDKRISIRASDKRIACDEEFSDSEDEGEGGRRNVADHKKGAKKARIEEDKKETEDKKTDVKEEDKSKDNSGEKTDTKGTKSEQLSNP
HDAC5, sequence (Q9UQL6 whole entry): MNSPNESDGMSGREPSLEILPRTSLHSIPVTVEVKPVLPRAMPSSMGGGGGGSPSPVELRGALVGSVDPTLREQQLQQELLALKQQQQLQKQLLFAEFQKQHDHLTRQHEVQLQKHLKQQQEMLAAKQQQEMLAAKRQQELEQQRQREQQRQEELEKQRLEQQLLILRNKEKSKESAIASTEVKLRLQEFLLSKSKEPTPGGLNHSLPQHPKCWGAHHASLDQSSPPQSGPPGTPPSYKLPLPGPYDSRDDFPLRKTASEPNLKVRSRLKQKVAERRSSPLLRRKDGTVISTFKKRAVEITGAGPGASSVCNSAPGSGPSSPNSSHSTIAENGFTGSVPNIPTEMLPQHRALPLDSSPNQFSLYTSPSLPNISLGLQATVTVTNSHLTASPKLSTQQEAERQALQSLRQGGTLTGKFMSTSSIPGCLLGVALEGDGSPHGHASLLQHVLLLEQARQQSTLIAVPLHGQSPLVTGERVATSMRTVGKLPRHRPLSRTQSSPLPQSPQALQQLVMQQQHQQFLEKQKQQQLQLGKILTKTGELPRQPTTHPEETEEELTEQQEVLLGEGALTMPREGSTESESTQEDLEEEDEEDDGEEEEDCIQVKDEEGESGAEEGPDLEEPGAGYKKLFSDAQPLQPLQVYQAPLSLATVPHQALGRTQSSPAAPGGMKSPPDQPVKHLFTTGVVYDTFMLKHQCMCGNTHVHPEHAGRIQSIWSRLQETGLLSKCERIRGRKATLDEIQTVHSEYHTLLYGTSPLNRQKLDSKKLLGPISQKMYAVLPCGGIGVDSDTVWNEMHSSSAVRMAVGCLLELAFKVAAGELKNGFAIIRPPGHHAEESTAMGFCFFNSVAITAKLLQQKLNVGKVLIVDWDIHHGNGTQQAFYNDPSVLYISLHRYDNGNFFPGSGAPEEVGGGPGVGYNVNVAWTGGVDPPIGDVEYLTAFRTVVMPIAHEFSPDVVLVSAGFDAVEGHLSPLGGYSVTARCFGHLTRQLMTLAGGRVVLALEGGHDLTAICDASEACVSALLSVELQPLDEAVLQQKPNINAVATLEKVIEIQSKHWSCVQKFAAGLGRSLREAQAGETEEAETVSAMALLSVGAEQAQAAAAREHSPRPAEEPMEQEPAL

In the case of `Cn1c(/C=C/C(=O)NO)ccc1/C=C/C(=O)c1cccc(Cl)c1` [Compound 3], the IC50 (HDAC1) is reported as > 300 µM, the IC50 (HDAC2) is reported as 257 µM and the IC50 (HDAC3) is reported as > 300 µM. For the same compound, the IC50 (HDAC4) was 132 µM, the IC50 (HDAC5) was 131 µM and the IC50 (HDAC6) was 6.1 µM. For the same compound, the IC50 (HDAC8) was 2 µM, the “percentage of T. cruzi growth inhibition” value ([1]; 80 μM, infected L929 cells, 96 h, toxic = L929 death) was “toxic” and the “percentage of T. cruzi growth inhibition” value ([1]; 160 μM, infected L929 cells, 96 h, toxic = L929 death) was “toxic”. The “selectivity index (SI), CC50/EC50” value ([1]; L929 CC50 / T. cruzi EC50) was 5.7, the EC50 ([1]; Trypanosoma cruzi, L929, 96 h, infected L929 cells, 96 h, mean ± SD, read-out: EC50, growth of T. cruzi amastigotes and trypomastigotes) was 7 ± 0.2 µM and the inhibition at 1.25 µM ([1]; Trypanosoma cruzi, 1.25 μM, infected L929 cells, 96 h, read-out: percentage of T. cruzi growth inhibition) was 0%. It also gave an inhibition at 2.5 µM ([1]; Trypanosoma cruzi, 2.5 μM, infected L929 cells, 96 h, toxic = L929 death, read-out: percentage of T. cruzi growth inhibition) of 2%, an inhibition at 5 µM ([1]; Trypanosoma cruzi, 5 μM, infected L929 cells, 96 h, toxic = L929 death, read-out: percentage of T. cruzi growth inhibition) of 39% and an inhibition at 10 µM ([1]; Trypanosoma cruzi, 10 μM, infected L929 cells, 96 h, toxic = L929 death, read-out: percentage of T. cruzi growth inhibition) of 67%. The inhibition at 20 µM ([1]; Trypanosoma cruzi, 20 μM, infected L929 cells, 96 h, toxic = L929 death, read-out: percentage of T. cruzi growth inhibition) was 87%, the inhibition at 40 µM ([1]; Trypanosoma cruzi, 40 μM, infected L929 cells, 96 h, toxic = L929 death, read-out: percentage of T. cruzi growth inhibition) was 90% and the inhibition at 20 µM [2] was 9.1 ± 6.3%. It also gave an inhibition at 0.8 µM ([3]; 0.8 μM) of 3.8 ± 3.4%, an inhibition at 4 µM ([3]; 4 μM) of 1.7 ± 1.5% and an inhibition at 20 µM ([3]; 20 μM) of 6.8 ± 1.8%. For the same compound, the inhibition at 0.8 µM ([4]; 0.8 μM) was 4.9 ± 4.9%, the inhibition at 4 µM ([4]; 4 μM) was 50.8 ± 2.4% and the inhibition at 20 µM ([4]; 20 μM) was 74.9 ± 1.3%. The “percentage of NTS activity, 72 h” value ([5]; 10 μM) was 22.3 ± 2.0%, the “percentage of NTS activity, 72 h” value ([5]; 20 μM) was 23.5 ± 0.9% and the IC50 ([5]; Schistosoma mansoni, 72 h, read-out: IC50, viability of NTS) was > 20 µM. The CC50 at 96 h (in vitro) was 40 µM.
